Assay results: paper PMC4732562 (2015)

Tested on: 3',3'-cGAMP riboswitch (Gs1761 aptamer, A2G/U72C/C73U) (RNA, riboswitch) GGUACACGACAAUACUAAACCAUCCGCGAGGAUGGGGCGGAAAGCCUAAGGGUCUCCCUGAGACAGCCGGGCUGCCGAAAUAUC
Assay: ITC
Settings: 35 °C; one set of sites; buffer in supplement

Question: Which Kd does the source give for `Nc1nc2c(ncn2[C@@H]2O[C@@H]3COP(=O)(O)O[C@H]4[C@@H](O)[C@H](n5cnc6c(N)ncnc65)O[C@@H]4COP(=O)(O)O[C@H]3[C@H]2O)c(=O)[nH]1` here?
Answer: 70 nM

Question: Which Kd does the source give for `Nc1nc2c(ncn2[C@@H]2O[C@@H]3COP(=O)(O)O[C@H]4[C@@H](O)[C@H](n5cnc6c(=O)[nH]c(N)nc65)O[C@@H]4COP(=O)(O)O[C@H]3[C@H]2O)c(=O)[nH]1` here?
Answer: 930 nM
